The results in this text go back to US6057333A, “Discorhabdin compounds and methods of use” (Harbor Branch Oceanographic Institution, Inc., priority 1998, dated 2000).

In one assay the test system is P388 cells. The experiment in a line: P388 antiproliferative (MTT) assay. Format: cell-based. The conditions noted are these: Mus musculus, 48 hr exposure. The protocol:
(§1) P388 cells are obtained from Dr. J. Mayo, National Cancer Institute, Bethesda, Md., and A549 cells are obtained from American Type Culture Collection, Rockville, Md. All cell lines are maintained in Roswell Park Memorial Institute (RPMI) medium 1640 supplemented with 10% horse serum. All cell lines are cultured in plastic tissue culture flasks and kept in an incubator at 37° C. in humidified air containing 5% CO2. Prior to testing, antibiotic-free stock cultures of each of the cell lines are subcultured to 10^6 cells/ml by dilution in fresh growth medium at 2 to 3 day intervals.
(§2) To assess the antiproliferative effects of agents against the P388 cell line, 200 μl cultures (96-well tissue culture plates, Nunc, Denmark) are established at 1×10^5 cells/ml in drug-free medium or medium containing the test agent at 10.0, 1.0, 0.10 and 0.010 μg/ml. Solvent for all dilutions ethanol. All experimental cultures are initiated in medium containing Gentamycin sulfate (50 μg/ml; Schering Corporation, Kenilworth, N.J.). After48 hr exposures, P388 cells are enumerated using 3-[4,5-Dimethylthiazol-2-yl]-2,5-diphenyltetrazolium bromide (MTT).
To quantitate the effects on cell proliferation and resulting IC50 values, 75 μl of warm growth media containing 5 mg/ml MTT is added to each well, cultures returned to the incubator, and left undisturbed for 90 minutes. […]

Another assay relates to A549 cells. The experiment in a line: A549 antiproliferative (MTT) assay. Format: cell-based. The settings on record: Homo sapiens, additional 48 hr exposure prior to MTT addition. The protocol:
as §1, §2
[…] Results are expressed as percent inhibition compared to the negative (no drug) control. Positive drug controls are included to monitor drug sensitivity of each of the cell lines. […]

The target of the next assay is T1, calcineurin (Bos taurus, UniProt P48452).
T1 construct: Calcineurin was prepared from bovine brain; from tissue; host or cells: bovine brain
The experiment in a line: Calcineurin assay (p-nitrophenylphosphate phosphatase activity). Format: biochemical, bovine. The conditions noted are these: pH 7.5, 30° C., 60 min. The protocol:
Calmodulin was prepared from bovine brain according to the method of Wallace et al. ([1983] Meth. Enzymol. 102:39-47). The calmodulin was either used directly or coupled to sepharose-4B to form the calmodulin-sepharoseaffinity column necessary for the isolation of calcineurin. Calcineurin was prepared from bovine brain by the method of Tallant et al. ([1983] Meth. Enzymol. 102:244-286), concentrated, aliquoted and stored at -80° C.
Calcineurin activity was assayed in 96-well microtiter plates in a final volume of 50 μl. Each well contained 50 mM Tris-HCl pH 7.5, 0.5 mM MnCl2, 0.05 mM CaCl2, 1 mM DTT, 50 mM p-nitrophenylphosphate (pNPP), 0.3 μg calcineurin, a five-fold excess of calmodulin, and either test samples or control compounds. Plates were incubated at 30° C. for 60 min. Liberated p-nitrophenol was determined by the change in absorbance at 405 nm.

In a further assay the target is T2, CPP32 (Homo sapiens, UniProt P42574).
T2 construct: BASF, Worchester, Mass; (gift, not a purchase)
T2 sequence (P42574 29-175 limits assumed): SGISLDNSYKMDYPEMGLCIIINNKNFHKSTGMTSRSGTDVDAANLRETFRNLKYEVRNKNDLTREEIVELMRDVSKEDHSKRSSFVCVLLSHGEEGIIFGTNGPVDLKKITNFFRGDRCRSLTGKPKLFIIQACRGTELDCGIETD
T2 sequence (P42574 176-277 limits assumed): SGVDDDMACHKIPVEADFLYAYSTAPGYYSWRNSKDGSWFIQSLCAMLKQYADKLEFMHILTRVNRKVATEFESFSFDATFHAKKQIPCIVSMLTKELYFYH
Briefly: Caspase inhibition (CPP32, Ac-DEVD-pNA substrate). Format: biochemical. The settings on record: Ac-DEVD-pNA 25 μM, pH 7.5, 30 degrees C., 30 minutes. How it is done: Test samples were aliquoted into 96 well microtiter plates and allowed to air dry. The stock CPP32 enzyme (kindly supplied by BASF, Worchester, Mass.) was diluted by adding 10 μl of the enzyme to 17 ml of reaction buffer (50 mM Hepes pH 7.5; 10% glycerol; 5 mM Dithiothreitol; 0.5 mM EDTA). A volume of 180 μl of the diluted enzyme was added to wells containing the dried test samples, or to empty wells (control). The contents of the microtiter wells were mixed by shaking on a plate shaker. Plates were incubated at 30 degrees C. for 5 minutes. […] Controls for each plate consisted of an inhibitor control (50 nM DEVD-CHO final concentration); positive control (enzyme and substrate) and negative control (reaction buffer and substrate). The plates were covered with aluminum foil and mixed using a plate shaker for 5 minutes then incubated at 30 degrees C. for 30 minutes. Plates were read using on a plate reader with absorbance measured at 405 nm. Data was expressed as percent inhibition by comparing the absorbance values of test samples with those of the positive control (no sample).

Molecules are shown by their SMILES. In brackets after ≈: the same amount, converted by molar mass.

T1 sequence (P63099 2-170, other chains not shown): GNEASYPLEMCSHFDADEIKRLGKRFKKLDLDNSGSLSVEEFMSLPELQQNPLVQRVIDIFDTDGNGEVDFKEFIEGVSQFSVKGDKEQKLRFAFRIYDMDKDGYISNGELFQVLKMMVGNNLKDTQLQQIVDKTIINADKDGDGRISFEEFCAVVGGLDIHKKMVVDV

Consider `Cn1cc2c3c1C(=O)C1=C(C3=NCC2)C2(C=C(Br)C(=O)C(Br)=C2)CCN1` [discorhabdin P], for which the 50% inhibitory concentration (IC50) (as a rule, the midpoint of a concentration-inhibition curve) is 0.025 µg/mL in the assay on P388 cells, 0.41 µg/mL with A549 cells, 1150 nM at calcineurin and 0.37 µg/mL (≈ 0.775 µM) at CPP32. Moreover, the inhibition (usually the drop in the measured response relative to a control, in per cent) at 0.5 µg/mL at calcineurin (at 0.5 μg/ml) was determined as 33%. The inhibition at 5 µg/mL on calcineurin (at 5 μg/ml) is 64%.
